Data reported in EP0009547A1, “Fluoramphenicol esters, chemotherapeutic preparations containing them and process for their preparation” (F. HOFFMANN-LA ROCHE & CO. Aktiengesellschaft, priority 1978, dated 1980).
Counter-ions that a name gives are not always drawn. Like-named read-outs stand apart in the source and are kept apart here. Blank lines part the entries; values can stand above or below the compound they belong to.

What was measured:
Metabolic stability = assay type: in vitro ADME; conditions: stated in contrast to Chloramphenicol
[1] = Water solubility (observation on the isolated product); assay type: physicochemical; conditions: in Wasser, result in words
Acute toxicity (mouse) = conditions: in vivo, read-out: Akute Toxizität (Maus): LD50
Streptococcos pyogenes = experiment: In vivo activity (mouse), infection with Streptococcos pyogenes; conditions: po, Maus, p.o., gegen Streptococcos pyogenes, hydrochloride form, read-out: In-vivo-Aktivität (Maus) (CD50 p.o.)
Escherichia coli = experiment: In vivo activity (mouse), infection with Escherichia coli; conditions: po; Maus, p.o., gegen Escherichia coli; hydrochloride form; read-out: In-vivo-Aktivität (Maus) (CD50 p.o.)
[2] = tested on: Pseudomonas aeruginosa BA; experiment: In vivo activity (mouse), infection with Pseudomonas aeruginosa BA; conditions: po; Maus, p.o., gegen Pseudomonas aeruginosa BA; hydrochloride form; read-out: In-vivo-Aktivität (Maus) (CD50 p.o.)
Salmonella typhimurium = experiment: In vivo activity (mouse), infection with Salmonella typhimurium; conditions: Salmonella enterica, po; Maus, p.o., gegen Salmonella typhimurium; hydrochloride form; read-out: In-vivo-Aktivität (Maus) (CD50 p.o.)
[3] = Hydrolytic cleavage of the ester at physiological pH; assay type: physicochemical; conditions: bei physiologischem pH

Metabolische Beständigkeit (Metabolic stability): metabolisch beständig
SMILES: O=C(N[C@H](CO)[C@H](O)c1ccc([N+](=O)[O-])cc1)C(F)F [Fluoramphenicol, D-threo-1-(p-Nitrophenyl)-2-difluor-Mez/3.5.1979 acetamino-l,3-propandiol]

Wasserlöslichkeit [1]: sehr gut wasserlösliches
SMILES: C[C@H](N)C(=O)OC[C@@H](NC(=O)C(F)F)[C@H](O)c1ccc([N+](=O)[O-])cc1 [Fluoramphenicol-3-(L-alaninester)-hydrochlorid]

SMILES: NCC(=O)OC[C@@H](NC(=O)C(F)F)[C@H](O)c1ccc([N+](=O)[O-])cc1 [Fluoramphenicol-3-glycinester, Fluoramphenicol-3-(glycinester)-hydrochlorid]
LD50 (Acute toxicity (mouse); po): > 5000 mg/kg | LD50 (Acute toxicity (mouse); sc): 2000 to 4000 mg/kg | ED50 (Streptococcos pyogenes): 27 mg/kg | ED50 (Escherichia coli): 23 mg/kg | ED50 [2]: 47 mg/kg | ED50 (Salmonella typhimurium): 12 mg/kg | Hydrolytische Spaltung [3]: sofort hydrolytisch zu wirksamem Fluoramphenicol gespalten

Wasserlöslichkeit [1]: sehr gut wasserlösliches
SMILES: O=C(O)CCC(=O)OC[C@@H](NC(=O)C(F)F)[C@H](O)c1ccc([N+](=O)[O-])cc1 [Fluoramphenicol-3-monosuccinat-natriumsalz]

Wasserlöslichkeit [1]: in Wasser praktisch unlösliche
SMILES: CCCCCCCCCCCCCCCC(=O)OC[C@@H](NC(=O)C(F)F)[C@H](O)c1ccc([N+](=O)[O-])cc1 [Fluoramphenicol-3-palmitat]
